From publication PMC6100082, “Pyridine-Ureas as Potential Anticancer Agents: Synthesis and In Vitro Biological Evaluation” (Molecules : A Journal of Synthetic Chemistry and Natural …, 2018)
Like-named read-outs stand apart in the source and are kept apart here.

Key:
[1] = tested on: breast cancer MCF-7 cell line; assay: In vitro anti-proliferative activity, MTT assay; format: cell-based, human; conditions: MCF-7, MTT
Description: The in vitro anti-proliferative activity of the newly prepared pyridine-ureas 8a–n was examined against breast cancer MCF-7 cell line. The assay was carried out, as triplicates, utilizing the 3-(4,5-dimethylthiazol-2-yl)-2,5-diphenyltetrazolium bromide (MTT) colorimetric assay as described by T. Mosmann. Doxorubicin and Sorafenib were included in this assay as a reference drug.
MCF-7 (human breast cancer cell line) and WI-38 (human lung fibroblast cell line), were obtained from American Type Culture Collection (Manassas, VA, USA). The cells were propagated in DMEM and supplemented with 10% heat-inactivated FBS (Hyclone), 10 μg/mL of insulin (Manufacturer, Sigma, St. Louis, MO, USA), and 1% penicillin-streptomycin. MTT assay was utilized to examine the in vitro anti-proliferative activity of the newly prepared ureas following the reported procedures. […] The data presented are the mean of at least three separate experiments.

[2] = Homo sapiens, MCF7, 48 h, 48 h of incubation, read-out: IC50 48 h
[3] = Homo sapiens, MCF7, 72 h, 72 h of incubation, read-out: IC50 72 h
[4] = 48 h of incubation, read-out: IC50 48 h

SMILES	IC50 [1, 2] [µM]	IC50 [1, 3] [µM]	melting point [°C]	IC50 [1, 4] [µM]
COc1ccc(-c2ccc(NC(=O)Nc3ccccc3)c(C)n2)cc1 [Compound 8a, 1-(6-(4-Methoxyphenyl)-2-methylpyridin-3-yl)-3-phenylurea]	3.03 ± 0.22	2.83 ± 0.25	205 to 207	
COc1ccc(-c2ccc(NC(=O)Nc3cccc(Cl)c3)c(C)n2)cc1 [Compound 8c, 1-(3-Chlorophenyl)-3-(6-(4-methoxyphenyl)-2-methylpyridin-3-yl) Urea]	6.4 ± 0.41	3.52 ± 0.11	212 to 214	
COc1ccc(-c2ccc(NC(=O)Nc3cccc(OC)c3)c(C)n2)cc1 [Compound 8f, 1-(3-Methoxyphenyl)-3-(6-(4-methoxyphenyl)-2-methylpyridin-3-yl) Urea]	> 50	> 50	227 to 230	> 50
COc1ccc(NC(=O)Nc2ccc(-c3ccc(OC)cc3)nc2C)cc1 [Compound 8g, 1-(4-Methoxyphenyl)-3-(6-(4-methoxyphenyl)-2-methylpyridin-3-yl) Urea]	4.12 ± 0.27	27.2 ± 1.98	241 to 242	
COc1ccc(-c2ccc(NC(=O)Nc3ccccc3)c(C)n2)cc1OC [Compound 8h, 1-(6-(3,4-Dimethoxyphenyl)-2-methylpyridin-3-yl)-3-phenylurea]	> 50	> 50	238 to 239	> 50
COc1ccc(-c2ccc(NC(=O)Nc3ccc(Cl)cc3)c(C)n2)cc1OC [Compound 8k, 1-(4-Chlorophenyl)-3-(6-(3,4-dimethoxyphenyl)-2-methylpyridin-3-yl) Urea]	5.63 ± 0.36	3.45 ± 0.3	266 to 267	
COc1cccc2c1C(=O)c1c(O)c3c(c(O)c1C2=O)C[C@@](O)(C(=O)CO)C[C@@H]3O[C@H]1C[C@H](N)[C@H](O)[C@H](C)O1 [Dox., Doxorubicin, reference compound]	1.93 ± 0.15	1.07 ± 0.07		
CNC(=O)c1cc(Oc2ccc(NC(=O)Nc3ccc(Cl)c(C(F)(F)F)c3)cc2)ccn1 [Sorafenib, reference compound]	4.5 ± 0.3	1.71 ± 0.15		
